# Like-named read-outs stand apart in the source and are kept apart here.
# Legend:
# bladder function = settings: rat model with rhythmic bladder contraction; cited from earlier work
# [1] = tested on: bladder overactivity induced by oxyhemoglobine; test: Cystometry with wake rats damaged by oxyhemoglobin (urge incontinence model); format: in vivo, Sprague-Dawley rat
# [2] = cited from earlier work
# bladder or urethra = settings: epidural application, 4 μg/kg (Batra) or 2 μg/kg (Drenger, dogs); cited from earlier work
# [3] = cited from earlier work; remark: listed apart in the source
# [4] = after use of the substances, OxyHb 2.5 × 10^−4M, buprenorphine 0.005 mg/kg iv where given
# [5] = before use of the substances, OxyHb 2.5 × 10^−4M, buprenorphine 0.005 mg/kg iv where given
# [6] = change compared to the pre-basis
molecule,measurement,setting,value
COc1cccc(C2(O)CCCCC2CN(C)C)c1 (stereo not shown) [tramadol],effect on bladder function,bladder function,positive effect
OxyHb,"ICI inter-contraction interval, after (a)",[1]; [4],a: 3.33 ± 0.18 min
same,"MP Micturition pressure, after (a)",[1]; [4],a: 97 ± 5 cm H2O
same,"TP threshold pressure, after (a)",[1]; [4],a: 9.84 ± 1.56 cm H2O
same,"bladder capacity, after (a)",[1]; [4],a: 0.65 ± 0.06 ml
same,"ICI inter-contraction interval, before (b)",[1]; [5],b: 4.96 ± 0.33 min
same,"MP Micturition pressure, before (b)",[1]; [5],b: 59 ± 8 cm H2O
same,"TP threshold pressure, before (b)",[1]; [5],b: 8.72 ± 1.31 cm H2O
same,"bladder capacity, before (b)",[1]; [5],b: 0.92 ± 0.10 ml
same,"ICI inter-contraction interval, Diff.",[1]; [6],Diff.: −32.9%
same,"MP Micturition pressure, Diff.",[1]; [6],Dif.: +64.4%
same,"TP threshold pressure, Diff.",[1]; [6],Diff.: +12.8%
same,"bladder capacity, Diff.",[1]; [6],Diff.: −29.3%
"21-cyclopropyl-7-α-[(S)-1-hydroxy-1,2,2-trimethylpropyl]-6,14-endo-ethano-6,7,8,14-tetrahydrooripavine [buprenorphine]",plasma concentration,[2]; about 5 minutes after intravenous 0.3 mg,about 9 ng/ml
same,plasma concentration,[2]; about 3 hours after intramuscular 0.3-mg dose,about 0.4 ng/ml
same,time of mean peak plasma concentration,[2]; intravenous single dose of about 0.3 mg,≤ 2 min
same,influence on the function of bladder or urethra,bladder or urethra,does not have a significant influence
same,Cmax,[3]; 0.4 mg sublingual dose,0.50 ng/mL
same,Cmax,[3]; 0.8 mg sublingual dose,1.04 ng/mL

# From patent US20040228906A1 (priority 2001, published 2004)
